Experimental data reported in PubChem BioAssay AID1918998 (Molecular Pharmacology Branch, DTP, NCI, 2023).

Test system: 521955-158-R2-J5-PDC complex spheroid growth
Assay: Anticancer human tumor 521955-158-R2-J5-PDC patient-derived pancreatic carcinoma cell line growth inhibition [AhR]
Conditions: for IC50: curve of first compound; for viability, T/C: stronger effect = lower value
Method in brief: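 Agents were dosed in half-log steps down from roughly clinical Cmax, or from 10 microM where Cmax was unknown, alone and with AhR antagonists. Read-out: percent test/control growth of tumor spheroids containing HUVEC and MSC stromal cells.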

[1] = second compound 0.1 µM, first compound 0.0316 µM
[2] = second compound 0.1 µM, first compound 0.1 µM
[3] = second compound 0.316 µM, first compound 0.0316 µM
[4] = second compound 0.316 µM, first compound 0.1 µM
[5] = second compound 1 µM, first compound 0.0316 µM
[6] = second compound 1 µM, first compound 0.1 µM
[7] = second compound 3.16 µM, first compound 0.0316 µM
[8] = second compound 3.16 µM, first compound 0.1 µM
[9] = second compound 10 µM, first compound 0.0316 µM
[10] = second compound 10 µM, first compound 0.1 µM
[11] = second compound 0.1 µM, first compound 0.316 µM
[12] = second compound 0.1 µM, first compound 1 µM
[13] = second compound 0.1 µM, first compound 3.16 µM
[14] = second compound 0.1 µM, first compound 10 µM
[15] = second compound 0.316 µM, first compound 0.316 µM
[16] = second compound 0.316 µM, first compound 1 µM
[17] = second compound 0.316 µM, first compound 3.16 µM
[18] = second compound 0.316 µM, first compound 10 µM
[19] = second compound 1 µM, first compound 0.316 µM
[20] = second compound 1 µM, first compound 1 µM
[21] = second compound 1 µM, first compound 3.16 µM
[22] = second compound 1 µM, first compound 10 µM
[23] = second compound 3.16 µM, first compound 0.316 µM
[24] = second compound 3.16 µM, first compound 1 µM
[25] = second compound 3.16 µM, first compound 3.16 µM
[26] = second compound 3.16 µM, first compound 10 µM
[27] = second compound 10 µM, first compound 0.316 µM
[28] = second compound 10 µM, first compound 1 µM
[29] = second compound 10 µM, first compound 3.16 µM
[30] = second compound 10 µM, first compound 10 µM
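Wherever viability, T/C is given: spheroids mix tumor cells with HUVEC endothelium and human MSC stroma; luminescence taken as viability surrogate after a week of drug exposure.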

`CC[C@@]1(O)C(=O)OCc2c1cc1n(c2=O)Cc2cc3c(CN(C)C)c(O)ccc3nc2-1` + Cc1cncc(-c2nc(NCCc3c[nH]c4ccccc34)c3ncn(C(C)C)c3n2)c1 showed an IC50 (second compound 0.1 µM) of 0.0542 µM, an IC50 (second compound 0.316 µM) of 0.0437 µM and an IC50 (second compound 1 µM) of 0.0431 µM. The IC50 (second compound 3.16 µM) was 0.0583 µM, the IC50 (second compound 10 µM) was > 0.1 µM and the viability, T/C (second compound 0.1 µM, first compound 0.000316 µM) was 95.1%. For the same compound, the viability, T/C (second compound 0.1 µM, first compound 0.001 µM) was 95.6%, the viability, T/C (second compound 0.1 µM, first compound 0.00316 µM) was 101% and the viability, T/C (second compound 0.1 µM, first compound 0.01 µM) was 76.8%. For the same compound, the viability, T/C [1] was 72.3%, the viability, T/C [2] was 28.1% and the viability, T/C (second compound 0.316 µM, first compound 0.000316 µM) was 113%. It also gave a viability, T/C (second compound 0.316 µM, first compound 0.001 µM) of 105%, a viability, T/C (second compound 0.316 µM, first compound 0.00316 µM) of 109% and a viability, T/C (second compound 0.316 µM, first compound 0.01 µM) of 78.8%. It also gave a viability, T/C [3] of 61.6%, a viability, T/C [4] of 27.1% and a viability, T/C (second compound 1 µM, first compound 0.000316 µM) of 117%. For the same compound, the viability, T/C (second compound 1 µM, first compound 0.001 µM) was 133%, the viability, T/C (second compound 1 µM, first compound 0.00316 µM) was 100% and the viability, T/C (second compound 1 µM, first compound 0.01 µM) was 99%. The viability, T/C [5] was 56.9%, the viability, T/C [6] was 25.9% and the viability, T/C (second compound 3.16 µM, first compound 0.000316 µM) was 155%. The viability, T/C (second compound 3.16 µM, first compound 0.001 µM) was 141%, the viability, T/C (second compound 3.16 µM, first compound 0.00316 µM) was 143% and the viability, T/C (second compound 3.16 µM, first compound 0.01 µM) was 111%. For the same compound, the viability, T/C [7] was 72.6%, the viability, T/C [8] was 30.5% and the viability, T/C (second compound 10 µM, first compound 0.000316 µM) was 214%. For the same compound, the viability, T/C (second compound 10 µM, first compound 0.001 µM) was 158%, the viability, T/C (second compound 10 µM, first compound 0.00316 µM) was 144% and the viability, T/C (second compound 10 µM, first compound 0.01 µM) was 94.5%. It also gave a viability, T/C [9] of 103% and a viability, T/C [10] of 38.5%.

`CCc1c2c(nc3ccc(O)cc13)-c1cc3c(c(=O)n1C2)COC(=O)[C@]3(O)CC` + Cc1cncc(-c2nc(NCCc3c[nH]c4ccccc34)c3ncn(C(C)C)c3n2)c1 showed an IC50 (second compound 0.1 µM) of 0.00404 µM, an IC50 (second compound 0.316 µM) of 0.00398 µM and an IC50 (second compound 1 µM) of 0.00417 µM. The IC50 (second compound 3.16 µM) was 0.00421 µM, the IC50 (second compound 10 µM) was 0.003 µM and the viability, T/C (second compound 0.1 µM, first compound 0.000949 µM) was 78.5%. The viability, T/C (second compound 0.1 µM, first compound 0.003 µM) was 58.6%, the viability, T/C (second compound 0.1 µM, first compound 0.00949 µM) was 25.2% and the viability, T/C (second compound 0.1 µM, first compound 0.03 µM) was 16.5%. For the same compound, the viability, T/C (second compound 0.1 µM, first compound 0.0949 µM) was 14.9%, the viability, T/C (second compound 0.1 µM, first compound 0.3 µM) was 12.5% and the viability, T/C (second compound 0.316 µM, first compound 0.000949 µM) was 70.1%. For the same compound, the viability, T/C (second compound 0.316 µM, first compound 0.003 µM) was 57.8%, the viability, T/C (second compound 0.316 µM, first compound 0.00949 µM) was 26.5% and the viability, T/C (second compound 0.316 µM, first compound 0.03 µM) was 18%. The viability, T/C (second compound 0.316 µM, first compound 0.0949 µM) was 12.4%, the viability, T/C (second compound 0.316 µM, first compound 0.3 µM) was 12.3% and the viability, T/C (second compound 1 µM, first compound 0.000949 µM) was 90.1%. For the same compound, the viability, T/C (second compound 1 µM, first compound 0.003 µM) was 60%, the viability, T/C (second compound 1 µM, first compound 0.00949 µM) was 24.5% and the viability, T/C (second compound 1 µM, first compound 0.03 µM) was 21%. For the same compound, the viability, T/C (second compound 1 µM, first compound 0.0949 µM) was 16.4%, the viability, T/C (second compound 1 µM, first compound 0.3 µM) was 15.2% and the viability, T/C (second compound 3.16 µM, first compound 0.000949 µM) was 70.4%. For the same compound, the viability, T/C (second compound 3.16 µM, first compound 0.003 µM) was 58.7%, the viability, T/C (second compound 3.16 µM, first compound 0.00949 µM) was 29.7% and the viability, T/C (second compound 3.16 µM, first compound 0.03 µM) was 18.2%. It also gave a viability, T/C (second compound 3.16 µM, first compound 0.0949 µM) of 16.7%, a viability, T/C (second compound 3.16 µM, first compound 0.3 µM) of 10.5% and a viability, T/C (second compound 10 µM, first compound 0.000949 µM) of 98.9%. For the same compound, the viability, T/C (second compound 10 µM, first compound 0.003 µM) was 49.8%, the viability, T/C (second compound 10 µM, first compound 0.00949 µM) was 24.1% and the viability, T/C (second compound 10 µM, first compound 0.03 µM) was 15.3%. The viability, T/C (second compound 10 µM, first compound 0.0949 µM) was 8.29% and the viability, T/C (second compound 10 µM, first compound 0.3 µM) was 4.78%.

In the case of `Nc1ccccc1NC(=O)c1ccc(CNC(=O)OCc2cccnc2)cc1` + Cc1cncc(-c2nc(NCCc3c[nH]c4ccccc34)c3ncn(C(C)C)c3n2)c1, the IC50 (second compound 0.1 µM) is reported as 5.51 µM, the IC50 (second compound 0.316 µM) is reported as 6.11 µM and the IC50 (second compound 1 µM) is reported as 5.74 µM. For the same compound, the IC50 (second compound 3.16 µM) was 5.35 µM, the IC50 (second compound 10 µM) was 1.02 µM and the viability, T/C [1] was 108%. For the same compound, the viability, T/C [2] was 106%, the viability, T/C [11] was 125% and the viability, T/C [12] was 94.7%. For the same compound, the viability, T/C [13] was 68.4%, the viability, T/C [14] was 31.5% and the viability, T/C [3] was 117%. It also gave a viability, T/C [4] of 134%, a viability, T/C [15] of 126% and a viability, T/C [16] of 103%. The viability, T/C [17] was 77.7%, the viability, T/C [18] was 30.4% and the viability, T/C [5] was 133%. The viability, T/C [6] was 139%, the viability, T/C [19] was 155% and the viability, T/C [20] was 108%. For the same compound, the viability, T/C [21] was 73.4%, the viability, T/C [22] was 30.5% and the viability, T/C [7] was 138%. The viability, T/C [8] was 143%, the viability, T/C [23] was 135% and the viability, T/C [24] was 110%. It also gave a viability, T/C [25] of 69.9%, a viability, T/C [26] of 27.2% and a viability, T/C [9] of 135%. For the same compound, the viability, T/C [10] was 125%, the viability, T/C [27] was 101% and the viability, T/C [28] was 48.8%. The viability, T/C [29] was 17.7% and the viability, T/C [30] was 2.9%.

For `Nc1ccn(C2OC(CO)C(O)C2(F)F)c(=O)n1` (stereo not given) + Cc1cncc(-c2nc(NCCc3c[nH]c4ccccc34)c3ncn(C(C)C)c3n2)c1, the IC50 (second compound 0.1 µM) was 0.571 µM, the IC50 (second compound 0.316 µM) was 0.501 µM and the IC50 (second compound 1 µM) was 0.86 µM. The IC50 (second compound 3.16 µM) was 0.967 µM, the IC50 (second compound 10 µM) was 0.604 µM and the viability, T/C [1] was 67.6%. The viability, T/C [2] was 65.7%, the viability, T/C [11] was 62.2% and the viability, T/C [12] was 38.4%. The viability, T/C [13] was 31.8%, the viability, T/C [14] was 24.7% and the viability, T/C [3] was 87.5%. The viability, T/C [4] was 80.8%, the viability, T/C [15] was 58.9% and the viability, T/C [16] was 34.8%. It also gave a viability, T/C [17] of 33.6%, a viability, T/C [18] of 22.3% and a viability, T/C [5] of 104%. The viability, T/C [6] was 86%, the viability, T/C [19] was 70.4% and the viability, T/C [20] was 42.6%. For the same compound, the viability, T/C [21] was 38.3%, the viability, T/C [22] was 25.3% and the viability, T/C [7] was 116%. The viability, T/C [8] was 97.5%, the viability, T/C [23] was 73.7% and the viability, T/C [24] was 47.7%. The viability, T/C [25] was 36%, the viability, T/C [26] was 26.1% and the viability, T/C [9] was 151%. The viability, T/C [10] was 99.3%, the viability, T/C [27] was 67.2% and the viability, T/C [28] was 36%. For the same compound, the viability, T/C [29] was 27.7% and the viability, T/C [30] was 22.2%.

`O=C(c1cc(Cc2n[nH]c(=O)c3ccccc23)ccc1F)N1CCN(C(=O)C2CC2)CC1` + Cc1cncc(-c2nc(NCCc3c[nH]c4ccccc34)c3ncn(C(C)C)c3n2)c1 was tested, and the IC50 (second compound 0.1 µM) was > 10 µM, the IC50 (second compound 0.316 µM) was > 10 µM and the IC50 (second compound 1 µM) was > 10 µM. The IC50 (second compound 3.16 µM) was > 10 µM, the IC50 (second compound 10 µM) was > 10 µM and the viability, T/C [1] was 106%. It also gave a viability, T/C [2] of 97.8%, a viability, T/C [11] of 113% and a viability, T/C [12] of 106%. The viability, T/C [13] was 98%, the viability, T/C [14] was 92.4% and the viability, T/C [3] was 101%. For the same compound, the viability, T/C [4] was 114%, the viability, T/C [15] was 109% and the viability, T/C [16] was 102%. For the same compound, the viability, T/C [17] was 86.9%, the viability, T/C [18] was 99.5% and the viability, T/C [5] was 119%. The viability, T/C [6] was 116%, the viability, T/C [19] was 115% and the viability, T/C [20] was 99.4%. For the same compound, the viability, T/C [21] was 104%, the viability, T/C [22] was 89.2% and the viability, T/C [7] was 142%. It also gave a viability, T/C [8] of 133%, a viability, T/C [23] of 121% and a viability, T/C [24] of 135%. The viability, T/C [25] was 115%, the viability, T/C [26] was 126% and the viability, T/C [9] was 139%. The viability, T/C [10] was 156%, the viability, T/C [27] was 167% and the viability, T/C [28] was 117%. It also gave a viability, T/C [29] of 114% and a viability, T/C [30] of 123%.
